Test results as given in US9492466B2, “Beta-hydroxy-gamma-aminophosphonates for treating immune disorders” (Nucitec S.A. de C.V., priority 2012, dated 2016).

What was measured:
THP-1 cells [1] = assay: Phagocytic activity of THP-1 cells (yeast phagocytosis, flow cytometry); format: cell-based, human
Method: The ability of (2R,3S)-(2-hydroxy-5-methyl-3-trimethylammonium-hexyl)-phosphonic acid dimethyl ester; iodide to induce the phagocytic activity of monocytic cells (THP-1 cells) was investigated. For this, THP-1 cells were differentiated using phorbol myristate 13-acetate (PMA, 100 ng/mL) in order to induce the phagocytic activity of yeast. When the cells were treated with PMA (100 ng/mL) for 48 hours cell differentiation of monocytic cells to macrophages was observed (FIG. 14). Yeast were added to cultured media and the phagocytosis was measured by flow cytometry (FIG. 15). (2R,3S)-(2-hydroxy-5-methyl-3-trimethylammonium-hexyl)-phosphonic acid dimethyl ester; iodide induced the phagocytosis of yeast by macrophages in a similar way that those macrophages treated with PMA alone.

CD4+ counts = settings: HIV-infected patients, in combination with standard antiretroviral treatment, vs antiretroviral agents with no supplementation; cited from earlier work
THP-1 cells [2] = assay: Cell proliferation of THP-1 cells co-stimulated with lipopolysaccharide; format: cell-based, human
Method: The ability of (2R,3S)-(2-hydroxy-5-methyl-3-trimethylammonium-hexyl)-phosphonic acid dimethyl ester iodide to modify the cell proliferation of monocytic cells (THP-1 cells) co-stimulated with lipopolysaccharide was investigated. THP-1 cells, a human monocytic cell line, were used and cultured in RPMI 1640 medium supplemented with 10% FBS and 100 U/ml penicillin-streptomycin. Cell cultures were incubated at 37° C. and 5% CO2. THP-1 cells were plated at 1×10^6 cells/ml in 24-well microtiter plates. Cells were co-stimulated with lipopolysaccharide (LPS, 10 μg/mL) in order to induce cell proliferation. Cells were treated with the compound at different concentrations, and a reduction in the number of cells at 0.01, 10 and 100 μM at 24 hours of treatment were observed (FIG. 12).

Nocardia brasiliensis = assay: Reduction in mycetoma development induced in mice; format: in vivo; settings: Balb-c mice, dexamethasone, 5 mg/kg and 50 mg/kg, after 15 days of treatment
Method: The ability of (2R,3S)-(2-hydroxy-5-methyl-3-trimethylammonium-hexyl)-phosphonic acid dimethyl ester; iodide at 5 mg/kg and 50 mg/kg to reduce the mycetoma development induced in mice was investigated. For this, male Balb-c mice weighing 25 grams were used. Mice were treated with dexamethasone (125 mg/kg) and mycetoma was induced with the inoculation Nocardia brasiliensis (15×10^8 cells, se) (FIG. 16).
Mycetoma is a chronic infectious disease that remains localized, involves cutaneous and subcutaneous tissue, fascia, and bone, and is noncontagious. The disease is characterized by tumefaction, draining sinuses, and the presence of sclerotia. The 31 fungi known to cause mycetoma are associated with soil and woody plants. A chronic, tumor-like deforming disease develops during subsequent years following the introduction of the etiologic agent via localized trauma.

[3] = Level of glucose, triglycerides, cholesterol and liver glycogen; format: in vivo, obese (fa/fa) Zucker rats (ZDF); settings: 100 mg/kg, eight weeks
Method: To determine whether the morphological and functional changes (see EXAMPLES 6 and 7) were associated with an improvement in liver metabolism, the levels of glucose, triglycerides and cholesterol were quantified. Obese (fa/fa) Zucker rats (ZDF) and lean rats, as control, were used. Obese (fa/fa) Zucker rats (ZDF) were treated with a daily dose of Compound 2 (100 mg/kg) 5 days a week during eight weeks. Plasma from blood samples was collected, and the triglycerides, cholesterol and glucose levels were quantified by colorimetric methods. Also, liver samples were taken, and liver glycogen was measured.

ALT, AST and AP in serum = assay: Level of liver enzymes (colorimetric); format: in vivo, obese (fa/fa) Zucker rats (ZDF); settings: obese Zucker rats, 100 mg/kg, p<0.01
Method: To determine whether the morphological changes in liver tissue (see EXAMPLE 6) were associated with an improvement in liver function, the levels of liver enzymes were investigated. Obese (fa/fa) Zucker rats (ZDF) and lean rats, as control, were used. Obese (fa/fa) Zucker rats (ZDF) were treated with a daily dose of Compound 2 (100 mg/kg) 5 days a week during eight weeks.
Plasma from blood samples was collected and liver enzymes were quantified by colorimetric methods. Liver enzymes, or liver (hepatic) function tests, are used to determine if the liver is functioning normally, or if it has an injury or disease. Alanine aminotransferase (ALT) is typically used to detect a liver injury or an active or chronic liver problem. Aspartate aminotransferase (AST) is used to detect liver injuries and long-term liver disease. Highly elevated levels of AST may indicate active hepatitis from any cause. Alkaline phosphatase (ALP) is an enzyme found in the bile ducts of the liver. Damage or obstruction of the bile ducts may result in elevated levels of ALP.

thymus and spleen = assay: Histological studies of thymus and spleen tissue; format: in vivo, obese (fa/fa) Zucker rats; settings: obese Zucker rats, hematoxylin and eosin
Method: Samples of tissue from thymus (FIG. 6) and spleen (FIG. 7) were taken and histological sections were made and stained with hematoxylin and eosin from obese (fa/fa) Zucker rats and lean rats. The histological sections from thymus show a decrease in thymic medulla in samples from obese animals. When animals were treated with Compound 2 for five weeks, a recovery of the cellularity of medulla in this lymphoid organ was observed.

THP-1 cells [4] = assay: Cell proliferation of THP-1 cells co-inhibited with hydrocortisone; format: cell-based, human; settings: hydrocortisone 10 μg/mL, all used concentrations, 48 hours of treatment
Method: The ability of (2R,3S)-(2-hydroxy-5-methyl-3-trimethylammonium-hexyl)-phosphonic acid dimethyl ester; iodide to modify the cell proliferation of THP-1 cells was investigated. THP-1 cells were cultured in RPMI 1640 medium supplemented with 10% FBS and 100 U/ml penicillin-streptomycin. Cell cultures were incubated at 37° C. and 5% CO2. THP-1 cells were plated at 1×10^6 cells/ml in 24-well microtiter plates. Cells were co-inhibited with hydrocortisone (10 μg/mL) to inhibit cell proliferation.

[5] = tested on: T lymphocyte subpopulations; assay: T lymphocyte subpopulations in bloodstream, thymus and spleen, 8 weeks of treatment; format: in vivo, obese (fa/fa) Zucker rats (ZDF); settings: 100 mg/kg
From the text: To determine whether the increase in lymphocytes is due to an increased production of lymphocytes or their mobility, the levels of T lymphocyte subpopulations in bloodstream, thymus, and spleen from obese (fa/fa) Zucker rats (ZDF) and lean rats (control), after 8 weeks of treatment with Compound 2 was investigated.
Obese rats were used in this study. Lymphocyte populations from bloodstream, thymus, and spleen were identified and quantified by flow cytometry using mice monoclonal antibodies against rat CD3+ conjugated with different fluorochromes and analyzed on a FACS Calibur flow cytometer BD using the Cell Quest software.

blood T-lymphocytes = assay: T cell levels in blood of obese rats, 5 weeks of treatment; format: in vivo, obese (fa/fa) Zucker rats; settings: obese Zucker rats, 100 mg/kg
Method: Compound 2 (100 mg/kg) was administered to obese (fa/fa) Zucker rats five days a week for 5 weeks. […] The level of T helper (CD4+) increased; cytotoxic T-lymphocyte(CD8+) levels remained unchanged.
The effect of Compound 2 on T lymphocyte populations in normal and unhealthy rats was investigated. Obese (fa/fa) Zucker rats (ZDF) and lean Wistar rats, as control, were used. Zucker rats present a mutation in the leptin receptor, which is the molecular basis of their characteristic phenotype (loss of satiety). Obese Zucker rats are considered representative of obesity-associated type diabetes in humans. They are hyperlipidaemic, grossly obese, hyperinsulinaemic, insulin resistant, and not prone to ketosis. Metabolic changes related to increased insulin resistance, including oxidative stress, have been implicated in obesity-related pathophysiology. However, most attention in recent years has been devoted to the concept that obesity elicits a chronic low-grade systemic inflammatory state.
In this study, animals were treated with 100 mg/kg of Compound 2 five days a week for 5 weeks. The circulating lymphocyte populations were identified and quantified by flow cytometry using mice monoclonal antibodies against rat CD3+ conjugated with different fluorochromes and analyzed on a FACS Calibur flow cytometer BD using the Cell Quest software.

[6] = tested on: liver injury present in obese (fa/fa) Zucker rats (ZDF); assay: Histological studies of liver tissue; format: in vivo; settings: 100 mg/kg
Method: The ability of Compound 2 (100 mg/kg) to modify the liver injury present in obese (fa/fa) Zucker rats (ZDF) was investigated. Obese (fa/fa) Zucker rats (ZDF) and lean rats, as control, were used. Obese (fa/fa) Zucker rats (ZDF) were treated with a daily dose of 100 mg/kg of the Compound 2, 5 days a week during eight weeks.
Samples of tissue from liver were taken, and histological sections were made and stained with hematoxylin and eosin from obese (fa/fa) Zucker rats and lean rats.

blood lymphocytes = assay: T cell levels in normal rats (flow cytometry of circulating lymphocytes); format: in vivo; settings: Wistar rats, 22.4 mg/kg
Method: The ability of (2R,3S)-(2-hydroxy-5-methyl-3-trimethylammonium-hexyl)-phosphonic acid; iodide (referred to herein as “Compound 1”) to modify the level of blood lymphocytes in rats was investigated. (2R,3S)-(2-hydroxy-5-methyl-3-trimethylammonium-hexyl)-phosphonic acid; iodide (22.4 mg/kg) was administered to Wistar rats 5 days a week for two weeks. The circulating lymphocyte populations were identified and quantified by flow cytometry mice monoclonal antibodies against rat CD3+ conjugated with different fluorochromes and analyzed on a FACS Calibur flow cytometer BD using the Cell Quest software. […] It is noted that administration of Compound 1 increases the levels of T helper (CD4+) and cytotoxic (CD8+) lymphocytes. In addition, an increase in regulatory T cells (CD4+CD25+) (p<0.01) was observed.

CCCCCCCCCCCCCC(=O)O[C@@H]1[C@@H](C)[C@@]2(O)[C@@H](C=C(CO)C[C@]3(O)C(=O)C(C)=C[C@@H]23)[C@@H]2C(C)(C)[C@]12OC(C)=O [PMA, phorbol myristate 13-acetate, reference compound]
cell differentiation of monocytic cells to macrophages (THP-1 cells [1]; THP-1 cells, 100 ng/mL, 48 hours): observed

C[N+](C)(C)C[C@H](O)CC(=O)[O-] [L-carnitine]
improvement in CD4+ counts (CD4+ counts): greater improvement

COP(=O)(C[C@H](O)[C@H](CC(C)C)[N+](C)(C)C)OC [Compound 2, (2R,3S)-(2-hydroxy-5-methyl-3-trimethylammonium-hexyl)-phosphonic acid dimethyl ester; iodide]
effect of LPS (THP-1 cells [2]; THP-1 cells co-stimulated with LPS 10 μg/mL): inhibit
number of cells (cell proliferation) (THP-1 cells [2]; THP-1 cells, LPS 10 μg/mL, at 0.01, 10 and 100 μM, 24 hours of treatment): reduction
paw thickness (mycetoma) (Nocardia brasiliensis): significant reduction
amount of glycogen in the liver ([3]; Zucker rats): higher
cholesterol compared with control (lean) levels ([3]; obese Zucker rats): reached the control levels
glucose compared with control (lean) levels ([3]; obese Zucker rats): reached the control levels
cholesterol levels ([3]; obese Zucker rats, p<0.01): significant reduction
glucose levels ([3]; obese Zucker rats, p<0.01): significant reduction
triglycerides levels ([3]; obese Zucker rats, p<0.01): significant reduction
level of ALT in serum (ALT, AST and AP in serum; 5 days a week during eight weeks): significant reduction
level of AP in serum (ALT, AST and AP in serum; eight weeks): significant reduction
level of AST in serum (ALT, AST and AP in serum; eight weeks): significant reduction
spleen morphology (white pulp, lymphoid follicles) (thymus and spleen): recovery
cellularity of medulla in thymus (histology) (thymus and spleen; treated for five weeks): recovery
cell proliferation (THP-1 cells [4]): induction
cytotoxic lymphocytes ([5]; obese rats, blood): significant increase
levels of total blood lymphocytes ([5]; obese rats, blood): increased
subpopulation of T helper cells ([5]; spleen): reduction
subpopulation of cytotoxic lymphocytes ([5]; spleen): reduction
total T-lymphocytes ([5]; spleen): decline
cytotoxic T-lymphocytes ([5]; thymus): increase
double positive CD8+ CD4+ (DP) lymphocytes ([5]; thymus): slight decrease
population of double negative CD4-CD8- (DN) lymphocytes ([5]; thymus): slight increase
population of helper T cells ([5]; thymus): increase
phagocytosis of yeast by macrophages (THP-1 cells [1]; PMA-differentiated THP-1 cells, similar to macrophages treated with PMA alone): induced
cytotoxic T-lymphocyte (CD8+) levels (blood T-lymphocytes; 5 weeks, blood): unchanged
level of T helper (CD4+) (blood T-lymphocytes; 5 weeks, blood): increased
T cell populations (blood T-lymphocytes; 5 weeks, similar to healthy Wistar rats, although in minor intensity): increase
liver histology ([6]; eight weeks, hematoxylin and eosin): normal liver histology
degree of fat accumulation in the liver ([6]; five days a week for eight weeks): significant reduction

(2R,3S)-(2-hydroxy-5-methyl-3-trimethylammonium-hexyl)-phosphonic acid; iodide [Compound 1]
level of total T-lymphocytes (blood lymphocytes; 5 days a week for two weeks, vs control group): increased
levels of T helper (CD4+) lymphocytes (blood lymphocytes; two weeks): increases
levels of cytotoxic (CD8+) lymphocytes (blood lymphocytes; two weeks): increases
regulatory T cells (CD4+CD25+) (blood lymphocytes; two weeks, p<0.01): increase
level of total blood T-lymphocytes (blood T-lymphocytes; five days a week for 5 weeks, vs control group): increased
